The values that follow come from patent US7741323B2, “Indene derivatives and process for the preparation thereof” (Korea Research Institute of Chemical Technology, priority 2004, dated 2010).

One data set concerns the target T1, human PPARγ (Homo sapiens, UniProt P37231).
T1 construct: expressed in transfected cells; host or cells: NIH/3T3 cells (mouse fibroblasts)
T1 sequence (P37231 238-503 limits assumed): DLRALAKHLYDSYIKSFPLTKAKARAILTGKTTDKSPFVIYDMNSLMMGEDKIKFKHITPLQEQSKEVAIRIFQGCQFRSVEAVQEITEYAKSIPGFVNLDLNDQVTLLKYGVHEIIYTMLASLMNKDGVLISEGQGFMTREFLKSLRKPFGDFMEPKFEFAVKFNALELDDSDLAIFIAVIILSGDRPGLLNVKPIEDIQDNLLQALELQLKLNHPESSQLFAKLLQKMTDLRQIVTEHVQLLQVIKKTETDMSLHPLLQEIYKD
Briefly: PPARγ activation test (GAL-4/luciferase reporter in NIH/3T3 cell). The settings on record: GAL-4/human PPARγ LBD luciferase reporter, 24 hrs incubation. The data set is classed as cell-based. As to the method: The activity for PPARγ activation was examined as follows.
The vector fused with the ligand binding domain of a human PPARγ gene and the DNA binding site of a yeast GAL-4 gene, and luciferase reporter vector were simultaneously transfected in NIH/3T3 cell. The cells were cultured for 24 hrs. The solution containing the cells at a concentration of 2×10^4 cells/well was placed on a 96-well plate. Then, each of the test compounds of the present invention or the control group without test compounds was added thereto. After incubating for 24 hrs, the cells were subjected to lysis.
On the technique in general: A reporter such as luciferase makes a cellular process visible.

Data set [1] is described as follows: Adverse side effects check (weight, heart weight, liver weight, GPT/GOT) in high fat diet C57/BL6J mice. The data set is classed as in vivo. The settings on record: high fat diet C57/BL6J mice, oral administration for 14 days.
Protocol: To check possible adverse side effects caused by the administration of the compound, the weight, heart weight and liver weight of each mouse were measured. GPT and GOT values were also calculated by employing a kit available in the market.

A word on the EC50: it is the midpoint of the concentration-response curve. Low values mean a more potent agent, high ones a less potent agent. `C/[N+]([O-])=C1\C(C(N)=O)=C(c2ccccc2)c2ccc(OCCCc3ccccc3)cc21` [Compound 73, 1-(trans-methylimino-N-oxy)-3-phenyl-6-(3-phenylpropoxy)-1H-indene-2-carboxylate amide]: on human PPARγ, the midpoint of the response, the EC50, lay at 110 nM. The same measure, in the same setting: then `CCOC(=O)C1=C(c2ccccc2)c2ccc(COCCc3ccccc3)cc2/C1=[N+](/C)[O-]` [Compound 43, 1-(trans-methylimino-N-oxy)-6-phenethyloxymethyl-3-phenyl-1H-indene-2-carboxylate ethyl ester], with 80 nM.

The melting point is the temperature, or range, at which the solid turns liquid. For `CC(C)NC(=O)C1=C(c2ccccc2)c2ccc(OCCc3ccccn3)cc2/C1=[N+](/C)[O-]` [Compound 80, 1-(trans-methylimino-N-oxy)-3-phenyl-6-(2-pyridine-2-ylethoxy)-1H-indene-2-carboxylate isopropyl amide], the melting point was in the range of 124 to 126 °C. Further, the response at human PPARγ was half-maximal at 100 nM (EC50). In the case of `CC(C)NC(=O)C1=C(c2ccccc2)c2cc(OCCN3CCOCC3)ccc2/C1=[N+](/C)[O-]` [Compound 100, 1-(trans-methylimino-N-oxy)-5-(2-morpholine-4-ylethoxy)-3-phenyl-1H-indene-2-carboxylate isopropyl amide], the melting point was 134 to 137 °C. Still for that read-out and setting: as for `CC(C)OC(=O)C1=C(c2ccccc2)c2ccc(OCCN3CCOCC3)cc2/C1=[N+](\C)[O-]` [Compound 101, 1-(cis-methylimino-N-oxy)-6-(2-morpholine-4-ylethoxy)-3-phenyl-1H-indene-2-carboxylate isopropyl ester], the figure is 153 to 155 °C.

With `CC(C)NC(=O)C1=C(c2ccccc2)c2ccc(OCCCc3ccccc3)cc2/C1=[N+](/C)[O-]` [Compound 38, 1-(trans-methylimino-N-oxy)-3-phenyl-6-(3-phenylpropoxy)-1H-indene-2-carboxylate isopropyl amide], a half-maximal response on human PPARγ (EC50) required 170 nM. As to `C/[N+]([O-])=C1\C=C(c2ccccc2)c2ccc(OCCN3CCOCC3)cc21` [Compound 82, methyl-[6-(2-morpholine-4-ylethoxy)-3-phenylindene-1-yllidene]amine-N-oxide], the melting point lay within 122 to 123 °C. `CCOC(=O)C1=C(c2ccccc2)c2ccc(OCCC3CCCCC3)cc2/C1=[N+](/C)[O-]` [Compound 25, 6-(2-cyclohexylethoxy)-1-(trans-methylimino-N-oxy)-3-phenyl-1H-indene-2-carboxylate ethyl ester] registered an EC50 on human PPARγ of 50 nM. Still for that read-out and setting: as for `C/[N+]([O-])=C1\C(C(=O)NC2CCCCC2)=C(c2ccccc2)c2ccc(OCCN3CCOCC3)cc21` [Compound 41, 1-(trans-methylimino-N-oxy)-6-(2-morpholine-4-yl-ethoxy)-3-phenyl-1H-indene-2-carboxylate cyclohexyl amide], the figure is 12 nM. `CCOC(=O)C1=C(c2ccccc2)c2cc3c(cc2/C1=[N+](/C)[O-])OCO3` [Compound 48, 1-(trans-methylimino-N-oxy)-5,6-methylenedioxy-1-oxo-3-phenyl-1H-indene-2-carboxylate ethyl ester]: the melting point fell in the range of 119 to 121 °C. The compound further displayed an EC50 on human PPARγ of 10 nM. The like results for `CC(C)NC(=O)C1=C(c2csc3ccccc23)c2ccc(OCCN3CCOCC3)cc2/C1=[N+](/C)[O-]` [Compound 94, 3-benzo-[b]-thiophene-3-yl-1-(trans-methylimino-N-oxy)-6-(2-morpholine-4-ylethoxy)-1H-indene-2-carboxylate isopropyl amide] were, in that order, 77 to 79 °C and 80 nM. In the case of `CCOC(=O)C1=C(c2ccccc2)c2ccc(OCCN3CCOCC3)cc2/C1=[N+](/C)[O-]` [Compound 33, 1-(trans-methylimino-N-oxy)-6-(2-morpholine-4-ylethoxy)-3-phenyl-1H-indene-2-carboxylate ethyl ester], the melting point was 102 to 104 °C. At human PPARγ, `CCOC(=O)C1=C(c2ccccc2)c2ccc(CN3CCOCC3)cc2/C1=[N+](/C)[O-]` [Compound 77, 1-(trans-methylimino-N-oxy)-6-morpholine-4-ylmethyl-3-phenyl-1H-indene-2-carboxylate ethyl ester] displayed an EC50 of 170 nM. Same read-out and setting: then `CCc1ccc(CCOc2ccc3c(c2)/C(=[N+](/C)[O-])C(C(=O)NC(C)C)=C3c2ccccc2)nc1` [Compound 81, 6-[2-(5-ethylpyridine-2-yl)ethoxy]-1-(trans-methylimino-N-oxy)-3-phenyl-1H-indene-2-carboxylate isopropyl amide], with 45 nM.

Compound `C/[N+]([O-])=C1\C(C#N)=C(c2ccccc2)c2ccc(OCCCc3ccccc3)cc21` [Compound 75, 1-(trans-methylimino-N-oxy)-3-phenyl-6-(3-phenylpropoxy)-1H-indene-2-carbonitrile] yielded a melting point of 126 to 128 °C. For the same compound, on human PPARγ, the concentration giving a half-maximal response (EC50) came to 95 nM. The like results for `CC(C)NC(=O)C1=C(c2ccccc2)c2ccc(OCCN3CCOCC3)cc2/C1=[N+](/C)[O-]` [Compound 50, 1-(trans-methylimino-N-oxy)-6-(2-morpholine-4-ylethoxy)-3-phenyl-1H-indene-2-carboxylate isopropyl amide] were, in that order, 123 to 125 °C and 200 nM.

`CCOC(=O)C1=C(c2ccccc2)c2cc(OCCCc3ccccc3)ccc2/C1=[N+](/C)[O-]` [Compound 42, 1-(trans-methylimino-N-oxy)-3-phenyl-5-(3-phenylpropoxy)-1H-indene-2-carboxylate ethyl ester] came in with an EC50 on human PPARγ of 80 nM. Still for that read-out and setting: as for `C/[N+]([O-])=C1\C(C(=O)NC2CCCCC2)=C(c2ccccc2)c2ccc(OCCCc3ccccc3)cc21` [Compound 39, 1-(trans-methylimino-N-oxy)-3-phenyl-6-(3-phenylpropoxy)-1H-indene-2-carboxylate cyclohexyl amide], the figure is 45 nM. Consider `CN(CCOc1ccc(CC2SC(=O)NC2=O)cc1)c1ccccn1` (centres unmarked) [Rosiglitazone, reference compound], for which, in data set [1], the GOT turned out to be 70 ± 8.2 karmen, the GPT is 85 ± 12/ karmen, the “Heart Weight” value was determined as 0.140 ± 0.009 g and the “Liver Weight” value was found to be 1.56 ± 0.18 g. The Weight in data set [1] was determined as 39 ± 1.6 g. `CCOC(=O)C1=C(c2ccccc2)c2ccc(OCCc3ccc(CC)cn3)cc2/C1=[N+](/C)[O-]` [Compound 79, 6-[2-(5-ethylpyridine-2-yl)ethoxy]-1-(trans-methylimino-N-oxy)-3-phenyl-1H-indene-2-carboxylate ethyl ester]: the EC50 at human PPARγ stood at 20 nM. Take `CC(C)NC(=O)C1=C(c2ccccc2)c2cc(OCCc3ccccn3)ccc2/C1=[N+](/C)[O-]` [Compound 99, 1-(trans-methylimino-N-oxy)-3-phenyl-5-(2-pyridine-2-ylethoxy)-1H-indene-2-carboxylate isopropyl amide]: the melting point lay in the range of 158 to 159 °C.

With `CCOC(=O)C1=C(c2ccccc2)c2ccc(OCCCCCc3ccccc3)cc2/C1=[N+](/C)[O-]` [Compound 15, 1-(trans-methylimino-N-oxy)-3-phenyl-6-(5-phenylpentyloxy)-1H-indene-2-carboxylate ethyl ester], at human PPARγ, a half-maximal response (EC50) required 150 nM. In the case of `CCOC(=O)C1=C(c2ccccc2)c2ccc(OCCN3CCOCC3)cc2/C1=[N+](\C)[O-]` [Compound 45, 1-(cis-methylimino-N-oxy)-6-(2-morpholine-4-ylethoxy)-3-phenyl-1H-indene-2-carboxylate ethyl ester], the melting point lay within 151 to 152 °C. In turn, `CCOC(=O)C1=C(C2CC2)c2ccc(OCCCc3ccccc3)cc2/C1=[N+](/C)[O-]` [Compound 68, 3-cyclopropyl-1-(trans-methylimino-N-oxy)-6-(3-phenylpropoxy)-1H-indene-2-carboxylate ethyl ester] showed an EC50 at human PPARγ of 10 nM.

As to `CC(C)OC(=O)C1=C(c2ccccc2)c2ccc(OCCN3CCOCC3)cc2/C1=[N+](/C)[O-]` [Compound 8], the melting point was in the range of 79 to 81 °C. Besides, the midpoint of the response on human PPARγ, the EC50, lay at 25 nM.
